Reference: EP2179732A1, “PHARMACEUTICAL COMPOSITION COMBINING AN ENZYME HMG-COA REDUCTASE INHIBITING AGENT AND A GASTROINTESTINAL LIPASE ENZYME INHIBITING AGENT” (Espinosa Abdala, Leopoldo de Jesús, priority 2007, dated 2008)
Marks after values point to notes of the source that are not given here.

Assays:
[1] = cited from earlier work
[2] = system: obese patients with hypercholesterolemia and hypertriglyceridemia; conditions: human, in vivo
Method: (§1) Methods. Selected patients were obese with a Body Mass Index (IMC) >30 Kg/m^2; with border (Total cholesterol 200-240 mg./dL.) or severe (Total cholesterol ≥ 240 mg./dL.) hypercholesterolemia; with hypertriglyceridemia (≥ 150 mg./dL.); normal pressure patients (systolic pressure <140 mm Hg and diastolic pressure < 90 mm Hg).
(§2) Patients were >50 years old. Patients were randomized for receiving in Group 1: Orlistat 1 capsule (120 mg.) in main meal.
(§3) Compliance with treatment was assessed by counting capsules and with follow-up visits every 3 months. Total cholesterol, LDL cholesterol, HDL Cholesterol, Triglycerides in serum and blood pressure during baseline visit were assessed, and at 6 months and 12 months of treatment. Waist index was assessed.

[3] = system: obese patients with hypercholesterolemia and hypertriglyceridemia; assay: Clinical comparative study of Orlistat, Atorvastatin and combination: lipid profile; assay type: in vivo; conditions: for C-HDL Baseline change at 1 year / C-LDL Baseline change at 1 year / CT Baseline change at 1 year / TG Baseline change at 1 year: 1 Year versus baseline; for C-HDL / C-LDL / CT (Total Cholesterol) / TG (Triglycerides): average (SD)
Method: as §1, §2, §3

[4] = system: obese patients with hypercholesterolemia and hypertriglyceridemia; assay: Clinical comparative study: blood pressure; assay type: in vivo
Method: as §1, §2, §3

[5] = dosage of 120 mg once a day; cited from earlier work
[6] = system: obese patients with hypercholesterolemia and hypertriglyceridemia; assay: Clinical comparative study: body weight (body mass index, waist circumference reduction, weight loss); assay type: in vivo
Method: as §1, §2, §3

plasma proteins = conditions: in vitro; lipoproteins and albumin main attachment proteins; cited from earlier work
[7] = dose-response study; cited from earlier work

Row | SMILES | C-HDL Baseline change at 1 year [3] | C-LDL Baseline change at 1 year [3] | CT Baseline change at 1 year [3] | TG Baseline change at 1 year [3] | C-HDL ([3]; 1 year of treatment) | C-LDL ([3]; 1 year of treatment) | CT (Total Cholesterol) ([3]; 1 year of treatment) | TG (Triglycerides) ([3]; 1 year of treatment) | C-HDL ([3]; 6 months of treatment) | C-LDL ([3]; 6 months of treatment) | CT (Total Cholesterol) ([3]; 6 months of treatment) | TG (Triglycerides) ([3]; 6 months of treatment) | Diastolic Baseline changes ([4]; 1 Year versus baseline) | Systolic Baseline changes ([4]; 1 Year versus baseline) | Diastolic blood pressure [PAD] ([4]; 1 year) | Systolic blood pressure [PAS] ([4]; 1 year) | Diastolic blood pressure [PAD] ([4]; 6 Months) | Systolic blood pressure [PAS] ([4]; 6 Months) | Diastolic Baseline changes ([4]; 6 Months versus baseline) | Systolic Baseline changes ([4]; 6 Months versus baseline) | other results
1 | CCCCCCCCCCC[C@@H](C[C@@H]1OC(=O)[C@H]1CCCCCC)OC(=O)[C@H](CC(C)C)NC=O [Orlistat] | 4.8% | -17.0* % | -13.0* % | -30-3** % | 45 (6) mg./dL. | 152 (23) mg./dL. | 211 (25) mg./dL. | 100 (22) mg./dL. | 44 (5) mg./dL. | 163 (21) mg./dL. | 232 (22) mg./dL. | 120 (24) mg./dL. | -8.0* % | -16.0* % | 82 (3) mm. Hg | 128 (3) mm. Hg | 82 (3) mm. Hg | 130 (3) mm. Hg | -8.0% | -6.0% | intact Orlistat concentrations ([1]; at 8 hours after oral administration, not detectable): < 5 ng/mL; two main metabolites M1 and M3 as share of total plasma concentration ([1]; of the minimal systemically absorbed fraction of the dose): about 42%; adverse events [2]: Two patients from Group 1 showed adverse gastrointestinal events (fecal urgency); maximum inhibition of fatty absorption [5]: 30%; IMC Baseline changes ([6]; 1 Year versus baseline): -6.2** %; PP Baseline changes ([6]; 1 Year versus baseline): -4.6** %; RCC Baseline changes ([6]; 1 Year versus baseline): -4.6* %; IMC (Body Mass Index) ([6]; 1 year): 27.3 (1.3) Kg./M^2; PP (Weight loss) ([6]; 1 year): -6.6 (1.5); RCC (Waist circumference reduction) ([6]; 1 year): -4.1 (1.1) cm.; IMC (Body Mass Index) ([6]; 6 Months): 30.3 (1.4) Kg./M^2; PP (Weight loss) ([6]; 6 Months): -4.0 (1.2); RCC (Waist circumference reduction) ([6]; 6 Months): -2.1 (0.7) cm.; IMC Baseline changes ([6]; 6 Months versus baseline): -3.2* %; PP Baseline changes ([6]; 6 Months versus baseline): -4.* %; RCC Baseline changes ([6]; 6 Months versus baseline): -2.1* %; attached to plasma proteins (plasma proteins): > 99%
2 | CC(C)c1c(C(=O)Nc2ccccc2)c(-c2ccccc2)c(-c2ccc(F)cc2)n1CC[C@@H](O)C[C@@H](O)CC(=O)O [Atorvastatin] | 12.3** % | -33.0** % | -27.0** % | -25.0* % | 46 (5) mg./dL. | 104 (23) mg./dL. | 184 (23) mg./dL. | 125 (28) mg./dL. | 44 (5) mg./dL. | 151 (22)* mg./dL. | 191 (21)* mg./dL. | 126 (29) mg./dL. | -7.0* % | -6.0* % | 83 (3) mm. Hg | 127 (4) mm. Hg | 85 (4) mm. Hg | 130 (4) mm. Hg | -5.0% | -3.0% | reduce LDL cholesterol [7]: 41-61%; reduce apolipoprotein B [7]: 34-50%; reduce total cholesterol [7]: 30-46%; reduce triglycerides [7]: 14-33%; alterations as to serum transaminases or in creatinphosphokinase activity [2]: did not show alterations; IMC Baseline changes ([6]; 1 Year versus baseline): -4.1* %; PP Baseline changes ([6]; 1 Year versus baseline): -4.6* %; RCC Baseline changes ([6]; 1 Year versus baseline): -3.7* %; PP (Weight loss) ([6]; 1 year): -7.3 (1.2); RCC (Waist circumference reduction) ([6]; 1 year): -3.1 (1.1) cm.; PP (Weight loss) ([6]; 6 Months): -3.7 (1.1); RCC (Waist circumference reduction) ([6]; 6 Months): -1.5 (0.7) cm.; IMC Baseline changes ([6]; 6 Months versus baseline): -2.3%; PP Baseline changes ([6]; 6 Months versus baseline): -3.7%; RCC Baseline changes ([6]; 6 Months versus baseline): -1.5%
